These substances were tested on male C57BL/6J mouse (assay: 3-Day Continuous Subcutaneous Administration Test-2 (food intake suppressing activity)). Conditions: 0.03 mg/kg/day, subcutaneous Alzet pump, food consumption as of 2 days after start; versus solvent (50% DMSO) control group.
Assay type: in vivo
Procedure: (5) Test Method: 3-Day Continuous Subcutaneous Administration Test-2
The food intake suppressing activity of the compound of the present invention was examined by the following method.
The test compound was dissolved in a solvent (50% DMSO) so that sustained release would occur at 0.03 mg/kg/day, and the solution was filled in the Alzet Pump (DURECT Corporation, model: 1003D). After the filling, the pump was immersed in physiological saline for priming, and then used. The pump was embedded by the following method. Each male C57BL/6J mouse at 9-10 weeks of age (25° C., allowed to take food and water ad libitum; 12-hour bright-12-hour dark cycle) was anesthetized; the skin in the upper back thereof was incised, and the above-mentioned pump was embedded subcutaneously; the incision was sutured. After weighing, this mouse was returned to the rearing cage (reared alone), and given previously weighed food; food consumption as of 2 days after the start of administration was measured. The food consumption was calculated by subtracting the amount of remaining food from the weight of the food given on the day of the start of administration. From the food consumption obtained, the food intake suppression rate (%) of each test compound was calculated using the following the formula.
A group receiving administration of the aforementioned solvent alone was the control group.
Food intake suppression rate (%): (Food consumption for control group−food consumption for test compound administration group)/food consumption for control group×100

First: Thp(4)-CH2NHCO-[D-Hyp24, Iva25, Pya(4)26, Cha27,36, Leu(Me)28, Lys30, Aib31]-PYY(23-36) [compound No. 359]
Second: 4-Imidazolecarbonyl-[D-Hyp24, Iva25, Pya(4)26, Cha27,36, Leu(Me)28, Lys(Ac)30, Aib31]-PYY(23-36) [compound No. 362]
The “food intake suppression rate (%)” value of the first is lower: 43.4% for the first, 54.2% for the second.

First: 4-Imidazolecarbonyl-[D-Pro24, Pya(4)26, Cha27,36, Iva28, Lys30, Aib31]-PYY(23-36) [compound No. 366]
Second: 4-Imidazolecarbonyl-[Aib24,31, Iva25, Pya(4)26, Cha27,36, Leu(Me)28, Lys(Ac)30]-PYY(23-36) [compound No. 368]
The “food intake suppression rate (%)” value of the first is lower: 32.9% for the first, 34.9% for the second.

First: 4-Imidazolecarbonyl-[D-Pro24, Iva25, Pya(4)26, Cha27,36, Leu(Me)28, Lys(Ac)30, Aib31]-PYY(23-36) [compound No. 365]
Second: Ac-[Glu23, D-Pro24, Iva25, Pya(4)26, Cha27,36, Leu(Me)28, Lys30, Aib31]-PYY(23-36) [compound No. 363]
The “food intake suppression rate (%)” value of the first is higher: 37.8% for the first, 27.7% for the second.

With “4-Imidazolecarbonyl-[D-Pro24, Pya(4)26, Cha27,36, Iva28, Lys(Ac)30, Aib31]-PYY(23-36) [compound No. 371]” the “food intake suppression rate (%)” value was 18.6%.

Reference: patent publication US9260500B2, “Peptide and use thereof” (Takeda Pharmaceutical Company Limited, priority 2009, dated 2016)
